# In patent US20240415914A1, “Water Dispersible Cannabinoid Compositions” (priority 2021, published 2024):
# Test: Stability of cannabinoid and Vitamin E components of Beverage 1 (AB White) stored at 8° C. and 21-25° C., LCMSMS over 570 days
# Format: physicochemical
# Settings: for Stability in AB White, 8° C. (content by LCMSMS): beverage stored at 8° C.; for Stability in AB White, 21-25° C. (content by LCMSMS): beverage stored at 21-25° C.
# Protocol: The LCMSMS was calibrated for 0-1000 ng/ml cannabinoids with the same resin material used in the preparation of the concentrates. At each time period, 100 ml of beverage was diluted with 10 ml of methanol and injected into the LCMSMS for analysis.
smiles,measurement,setting,value
"C=C(C)[C@@H]1CCC(C)=C[C@H]1c1c(O)cc(CCC)cc1O [CBDV, cannabidivarin]","Stability in AB White, 8° C. (content by LCMSMS)",day 0,0.150 µg/mL
same,"Stability in AB White, 8° C. (content by LCMSMS)",day 1,0.146 µg/mL
same,"Stability in AB White, 8° C. (content by LCMSMS)",day 2,0.147 µg/mL
same,"Stability in AB White, 8° C. (content by LCMSMS)",day 3,0.146 µg/mL
same,"Stability in AB White, 8° C. (content by LCMSMS)",day 5,0.147 µg/mL
same,"Stability in AB White, 8° C. (content by LCMSMS)",day 8,0.148 µg/mL
same,"Stability in AB White, 8° C. (content by LCMSMS)",day 9,0.146 µg/mL
same,"Stability in AB White, 8° C. (content by LCMSMS)",day 10,0.148 µg/mL
same,"Stability in AB White, 8° C. (content by LCMSMS)",day 11,0.150 µg/mL
same,"Stability in AB White, 8° C. (content by LCMSMS)",day 12,0.150 µg/mL
same,"Stability in AB White, 8° C. (content by LCMSMS)",day 15,0.150 µg/mL
same,"Stability in AB White, 8° C. (content by LCMSMS)",day 16,0.148 µg/mL
same,"Stability in AB White, 8° C. (content by LCMSMS)",day 17,0.146 µg/mL
same,"Stability in AB White, 8° C. (content by LCMSMS)",day 18,0.146 µg/mL
same,"Stability in AB White, 8° C. (content by LCMSMS)",day 19,0.149 µg/mL
same,"Stability in AB White, 8° C. (content by LCMSMS)",day 22,0.149 µg/mL
same,"Stability in AB White, 8° C. (content by LCMSMS)",day 23,0.149 µg/mL
same,"Stability in AB White, 8° C. (content by LCMSMS)",day 24,0.147 µg/mL
same,"Stability in AB White, 8° C. (content by LCMSMS)",day 25,0.149 µg/mL
same,"Stability in AB White, 8° C. (content by LCMSMS)",day 26,0.152 µg/mL
same,"Stability in AB White, 8° C. (content by LCMSMS)",day 29,0.151 µg/mL
same,"Stability in AB White, 8° C. (content by LCMSMS)",day 30,0.148 µg/mL
same,"Stability in AB White, 8° C. (content by LCMSMS)",day 60,0.143 µg/mL
same,"Stability in AB White, 8° C. (content by LCMSMS)",day 90,0.146 µg/mL
same,"Stability in AB White, 8° C. (content by LCMSMS)",day 120,0.144 µg/mL
same,"Stability in AB White, 8° C. (content by LCMSMS)",day 150,0.150 µg/mL
same,"Stability in AB White, 8° C. (content by LCMSMS)",day 180,0.150 µg/mL
same,"Stability in AB White, 8° C. (content by LCMSMS)",day 210,0.147 µg/mL
same,"Stability in AB White, 8° C. (content by LCMSMS)",day 240,0.145 µg/mL
same,"Stability in AB White, 8° C. (content by LCMSMS)",day 270,0.143 µg/mL
same,"Stability in AB White, 8° C. (content by LCMSMS)",day 300,0.143 µg/mL
same,"Stability in AB White, 8° C. (content by LCMSMS)",day 330,0.146 µg/mL
same,"Stability in AB White, 8° C. (content by LCMSMS)",day 360,0.145 µg/mL
same,"Stability in AB White, 8° C. (content by LCMSMS)",day 390,0.143 µg/mL
same,"Stability in AB White, 8° C. (content by LCMSMS)",day 420,0.144 µg/mL
same,"Stability in AB White, 8° C. (content by LCMSMS)",day 450,0.145 µg/mL
same,"Stability in AB White, 8° C. (content by LCMSMS)",day 480,0.143 µg/mL
same,"Stability in AB White, 8° C. (content by LCMSMS)",day 510,0.138 µg/mL
same,"Stability in AB White, 8° C. (content by LCMSMS)",day 540,0.139 µg/mL
same,"Stability in AB White, 8° C. (content by LCMSMS)",day 570,0.138 µg/mL
same,"Stability in AB White, 21-25° C. (content by LCMSMS)",day 0,0.150 µg/mL
same,"Stability in AB White, 21-25° C. (content by LCMSMS)",day 1,0.149 µg/mL
same,"Stability in AB White, 21-25° C. (content by LCMSMS)",day 2,0.148 µg/mL
same,"Stability in AB White, 21-25° C. (content by LCMSMS)",day 3,0.149 µg/mL
same,"Stability in AB White, 21-25° C. (content by LCMSMS)",day 5,0.144 µg/mL
same,"Stability in AB White, 21-25° C. (content by LCMSMS)",day 8,0.145 µg/mL
same,"Stability in AB White, 21-25° C. (content by LCMSMS)",day 9,0.148 µg/mL
same,"Stability in AB White, 21-25° C. (content by LCMSMS)",day 10,0.147 µg/mL
same,"Stability in AB White, 21-25° C. (content by LCMSMS)",day 11,0.150 µg/mL
same,"Stability in AB White, 21-25° C. (content by LCMSMS)",day 12,0.152 µg/mL
same,"Stability in AB White, 21-25° C. (content by LCMSMS)",day 15,0.151 µg/mL
same,"Stability in AB White, 21-25° C. (content by LCMSMS)",day 16,0.145 µg/mL
same,"Stability in AB White, 21-25° C. (content by LCMSMS)",day 17,0.150 µg/mL
same,"Stability in AB White, 21-25° C. (content by LCMSMS)",day 18,0.151 µg/mL
same,"Stability in AB White, 21-25° C. (content by LCMSMS)",day 19,0.148 µg/mL
same,"Stability in AB White, 21-25° C. (content by LCMSMS)",day 22,0.148 µg/mL
same,"Stability in AB White, 21-25° C. (content by LCMSMS)",day 23,0.148 µg/mL
same,"Stability in AB White, 21-25° C. (content by LCMSMS)",day 24,0.145 µg/mL
same,"Stability in AB White, 21-25° C. (content by LCMSMS)",day 25,0.145 µg/mL
same,"Stability in AB White, 21-25° C. (content by LCMSMS)",day 26,0.149 µg/mL
same,"Stability in AB White, 21-25° C. (content by LCMSMS)",day 29,0.147 µg/mL
same,"Stability in AB White, 21-25° C. (content by LCMSMS)",day 30,0.151 µg/mL
same,"Stability in AB White, 21-25° C. (content by LCMSMS)",day 60,0.149 µg/mL
same,"Stability in AB White, 21-25° C. (content by LCMSMS)",day 90,0.143 µg/mL
same,"Stability in AB White, 21-25° C. (content by LCMSMS)",day 120,0.141 µg/mL
same,"Stability in AB White, 21-25° C. (content by LCMSMS)",day 150,0.146 µg/mL
same,"Stability in AB White, 21-25° C. (content by LCMSMS)",day 180,0.141 µg/mL
same,"Stability in AB White, 21-25° C. (content by LCMSMS)",day 210,0.142 µg/mL
same,"Stability in AB White, 21-25° C. (content by LCMSMS)",day 240,0.145 µg/mL
same,"Stability in AB White, 21-25° C. (content by LCMSMS)",day 270,0.148 µg/mL
same,"Stability in AB White, 21-25° C. (content by LCMSMS)",day 300,0.142 µg/mL
same,"Stability in AB White, 21-25° C. (content by LCMSMS)",day 330,0.144 µg/mL
same,"Stability in AB White, 21-25° C. (content by LCMSMS)",day 360,0.146 µg/mL
same,"Stability in AB White, 21-25° C. (content by LCMSMS)",day 390,0.146 µg/mL
same,"Stability in AB White, 21-25° C. (content by LCMSMS)",day 420,0.143 µg/mL
same,"Stability in AB White, 21-25° C. (content by LCMSMS)",day 450,0.144 µg/mL
same,"Stability in AB White, 21-25° C. (content by LCMSMS)",day 480,0.143 µg/mL
same,"Stability in AB White, 21-25° C. (content by LCMSMS)",day 510,0.139 µg/mL
same,"Stability in AB White, 21-25° C. (content by LCMSMS)",day 540,0.140 µg/mL
same,"Stability in AB White, 21-25° C. (content by LCMSMS)",day 570,0.138 µg/mL
